Reference: PMC2346451 (PLoS ONE, 2008)
Read-outs that look alike come from different tables or passages of the source.

Experiments:
Type in all cases: cell-based
[1] = system: chicken rat TRPV1 chimera (crcTRPV1, CRC V2–V4); assay: Whole-cell patch clamp of chicken rat TRPV1 chimera in HEK-293T cells; settings: n = 6
Procedure: (§1) Transformed human embryonic kidney-293 (HEK-293T) cells were grown in Dulbecco's modified Eagle's medium (DMEM)+F-12 supplemented with 10% fetal calf serum, and 1% penicillin/streptomycin in 5% CO2 at 37°C. Cells grown to 90% confluence in 35 mm Petri dishes were transiently transfected with plasmid DNA encoding a TRP channel construct (1 µg). Rat TRPV1 (rTRPV1) was cloned into an enhanced green fluorescent protein-containing vector (pTracer-CMV2; Invitrogen, Carlsbad, CA). Chicken TRPV1 (cTRPV1), the chicken rat TRPV1 chimera (crcTRPV1), rat TRPV2 (rTRPV2), mouse TRPV3 (mTRPV3), mouse TRPV4 (mTRPV4), rat TRPM8 (rTRPM8), and rat TRPA1 (rTRPA1), were cloned into pcDNA3 and co-transfected with enhanced green fluorescent protein (0.1 µg) to follow expression. The cTRPV1 and crcTRPV1 clones were kindly provided by Dr. David Julius. Recordings were carried out 24–36 hours after transfection. Cells were split via trypsin EDTA, plated on glass coverslips at 5–10% confluence, and used 2–3 hours later.
Electrophysiological experiments were performed using the whole-cell patch-clamp technique at room temperature. […]
Recordings were obtained using an Axopatch 200B amplifier, Digidata 1322A analog-to-digital converter, and pClamp 8.01 software (Molecular Devices, Union City, CA). […] Cell capacitance was measured for each cell, and access resistance compensated to ∼80%. […]

mouse TRPV3 (mTRPV3) = biological target: T1, mouse TRPV3 (mTRPV3) (Mus musculus, UniProt Q8K424); assay: Whole-cell patch clamp of mouse TRPV3 expressed in HEK-293T cells; settings: for Increase of agonist-evoked current prior to onset of inhibition: citral 1 mM, n = 7
T1 sequence (Q8K424 1-791): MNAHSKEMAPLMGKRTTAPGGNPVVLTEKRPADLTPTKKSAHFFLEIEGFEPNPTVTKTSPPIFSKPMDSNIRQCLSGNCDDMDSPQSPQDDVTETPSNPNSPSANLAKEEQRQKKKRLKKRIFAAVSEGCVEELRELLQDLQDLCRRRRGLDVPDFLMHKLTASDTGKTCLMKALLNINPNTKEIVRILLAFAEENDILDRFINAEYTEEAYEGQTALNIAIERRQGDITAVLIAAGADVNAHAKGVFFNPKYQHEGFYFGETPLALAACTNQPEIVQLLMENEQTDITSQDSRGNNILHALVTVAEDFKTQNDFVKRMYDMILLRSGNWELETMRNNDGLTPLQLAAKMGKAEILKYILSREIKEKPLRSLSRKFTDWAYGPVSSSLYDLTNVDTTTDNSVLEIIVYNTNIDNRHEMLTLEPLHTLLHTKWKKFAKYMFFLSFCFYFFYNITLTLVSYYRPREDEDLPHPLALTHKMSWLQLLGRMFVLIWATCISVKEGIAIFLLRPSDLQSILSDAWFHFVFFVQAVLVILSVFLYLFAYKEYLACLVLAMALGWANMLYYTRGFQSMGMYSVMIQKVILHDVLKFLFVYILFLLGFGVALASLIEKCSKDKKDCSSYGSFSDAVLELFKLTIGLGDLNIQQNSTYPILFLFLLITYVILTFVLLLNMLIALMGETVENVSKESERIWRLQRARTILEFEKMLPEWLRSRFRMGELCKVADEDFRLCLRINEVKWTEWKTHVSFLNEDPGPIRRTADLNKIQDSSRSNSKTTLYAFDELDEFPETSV
Procedure: as §1
(§2) Electrophysiological experiments were performed using the whole-cell patch-clamp technique at room temperature. Modified Ringer's solution with low chloride and nominal calcium contained (in mM): 130 sodium hydroxide, 5 potassium chloride, 1 magnesium chloride, 10 sodium 4-(2-hydroxyethyl)-1-piperazineethanesulfonic acid, 10 2-(N-morpholino)ethanesulfonic acid, and 20 glucose (pH 7.4; 310 milli-osmolar). […] 2 mM calcium chloride was included in the external solution where noted. To activate TRPV1, the modified Ringer's solution was made at pH 5 (low pH solution) and the chloride concentration was kept to a minimum to prevent contamination of the TRPV1 currents with acid-activated chloride currents. For recordings from heterologously expressing cells, the internal pipette solution contained (in mM): 125 cesium-Methanesulfonate, 10 cesium (1.2-bis(o-aminophenoxy)ethane-N,N,N',N'-tetraacetic acid, 8 sodium chloride, 4 magnesium adenosine triphosphate, and 10 HEPES (pH 7.2; 290 mOSM; nominal free calcium concentrations). For TRPA1 and dorsal root ganglion recordings, the internal pipette solution contained (in mM): 110 cesium-Methanesulfonate, 0.5 cesium4BAPTA, 8 sodium chloride, 0.2 calcium chloride, 4 magnesium-ATP, 4 sodium-GTP, and 10 4-(2-hydroxyethyl)-1-piperazineethanesulfonic acid (pH 7.2; 290 mOSM; 100 nM free calcium internal). MaxChelator was used to calculate the free calcium concentration (http://www.stanford.edu/cpatton/maxc.html).
(§3) Recordings were obtained using an Axopatch 200B amplifier, Digidata 1322A analog-to-digital converter, and pClamp 8.01 software (Molecular Devices, Union City, CA). Data were low-pass filtered at 2 kHz and digitized at 5 kHz. Borosilicate glass pipettes (World Precision Instruments, Sarasota, FL) were typically 3 MΩ pipette resistance after fire polishing. Cell capacitance was measured for each cell, and access resistance compensated to ∼80%. Recordings were begun ∼5 minutes after initial rupture to ensure initial steady state conditions. Current-voltage (I-V) relations were obtained using a ramp protocol. Voltage ramps (400 ms) from −100 to +40 or +100 mV were applied every 1–2 seconds and the holding potential was either −70 mV or 0 mV (see Figure Legends). A 40 ms step was added at the beginning and end of the ramp (i.e. at −100 mV, +40 mV or +100 mV). Liquid junction potentials were not corrected.
(§4) The dose response curves were fit with the Hill equation, where [drawing 8] and [A] is the concentration of agonist or blocker, N is the Hill coefficient, and KD is the [A] for Imeasured/Imax = 0.5. The term apparent dissociation constant is used in place of the half concentration of excitation and inhibition. […] Averaged data are presented as mean±standard error (S.E.) throughout. Statistical analysis included paired and unpaired Student's t-test comparisons of the data; p values are reported in the text.

rat TRPA1 (rTRPA1) = rat TRPA1 (rTRPA1) (Rattus norvegicus, UniProt Q6RI86); assay: Whole-cell patch clamp of rat TRPA1 expressed in HEK-293T cells
Sequence of rat TRPA1 (rTRPA1) (Q6RI86 whole entry): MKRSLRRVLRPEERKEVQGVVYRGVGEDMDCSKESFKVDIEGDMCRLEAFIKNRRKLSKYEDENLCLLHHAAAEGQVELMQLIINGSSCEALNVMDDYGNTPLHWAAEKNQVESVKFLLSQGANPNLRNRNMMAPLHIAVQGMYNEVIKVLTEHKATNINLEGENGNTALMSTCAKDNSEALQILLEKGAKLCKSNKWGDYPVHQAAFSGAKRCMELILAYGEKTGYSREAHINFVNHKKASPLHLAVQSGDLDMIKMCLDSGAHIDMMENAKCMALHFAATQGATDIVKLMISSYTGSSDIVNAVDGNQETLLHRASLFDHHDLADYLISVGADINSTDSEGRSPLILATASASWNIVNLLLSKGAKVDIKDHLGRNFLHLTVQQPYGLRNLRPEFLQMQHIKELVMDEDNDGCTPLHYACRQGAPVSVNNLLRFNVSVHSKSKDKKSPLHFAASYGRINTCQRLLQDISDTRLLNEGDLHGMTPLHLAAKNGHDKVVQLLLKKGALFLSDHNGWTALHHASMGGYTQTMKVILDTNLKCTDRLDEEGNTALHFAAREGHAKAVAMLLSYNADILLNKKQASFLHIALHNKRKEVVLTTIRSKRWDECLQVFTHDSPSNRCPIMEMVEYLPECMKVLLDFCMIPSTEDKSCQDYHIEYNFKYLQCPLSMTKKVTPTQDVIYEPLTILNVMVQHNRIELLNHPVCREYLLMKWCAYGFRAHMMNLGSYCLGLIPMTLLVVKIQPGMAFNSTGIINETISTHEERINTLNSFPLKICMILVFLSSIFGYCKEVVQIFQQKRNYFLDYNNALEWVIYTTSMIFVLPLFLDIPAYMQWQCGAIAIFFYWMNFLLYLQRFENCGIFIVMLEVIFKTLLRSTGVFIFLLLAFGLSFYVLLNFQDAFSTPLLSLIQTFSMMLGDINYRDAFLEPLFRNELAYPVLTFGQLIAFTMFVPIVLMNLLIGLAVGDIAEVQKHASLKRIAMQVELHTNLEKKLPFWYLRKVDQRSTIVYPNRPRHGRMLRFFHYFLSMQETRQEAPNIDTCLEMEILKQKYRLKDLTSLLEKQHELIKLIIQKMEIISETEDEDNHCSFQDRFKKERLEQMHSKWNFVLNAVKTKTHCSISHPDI
Procedure: as §1, §2, §3, §4

rat TRPM8 (rTRPM8) = rat TRPM8 (rTRPM8) (Rattus norvegicus, UniProt Q8R455); assay: Whole-cell patch clamp of rat TRPM8 expressed in HEK-293T cells
Sequence of rat TRPM8 (rTRPM8) (Q8R455 whole entry): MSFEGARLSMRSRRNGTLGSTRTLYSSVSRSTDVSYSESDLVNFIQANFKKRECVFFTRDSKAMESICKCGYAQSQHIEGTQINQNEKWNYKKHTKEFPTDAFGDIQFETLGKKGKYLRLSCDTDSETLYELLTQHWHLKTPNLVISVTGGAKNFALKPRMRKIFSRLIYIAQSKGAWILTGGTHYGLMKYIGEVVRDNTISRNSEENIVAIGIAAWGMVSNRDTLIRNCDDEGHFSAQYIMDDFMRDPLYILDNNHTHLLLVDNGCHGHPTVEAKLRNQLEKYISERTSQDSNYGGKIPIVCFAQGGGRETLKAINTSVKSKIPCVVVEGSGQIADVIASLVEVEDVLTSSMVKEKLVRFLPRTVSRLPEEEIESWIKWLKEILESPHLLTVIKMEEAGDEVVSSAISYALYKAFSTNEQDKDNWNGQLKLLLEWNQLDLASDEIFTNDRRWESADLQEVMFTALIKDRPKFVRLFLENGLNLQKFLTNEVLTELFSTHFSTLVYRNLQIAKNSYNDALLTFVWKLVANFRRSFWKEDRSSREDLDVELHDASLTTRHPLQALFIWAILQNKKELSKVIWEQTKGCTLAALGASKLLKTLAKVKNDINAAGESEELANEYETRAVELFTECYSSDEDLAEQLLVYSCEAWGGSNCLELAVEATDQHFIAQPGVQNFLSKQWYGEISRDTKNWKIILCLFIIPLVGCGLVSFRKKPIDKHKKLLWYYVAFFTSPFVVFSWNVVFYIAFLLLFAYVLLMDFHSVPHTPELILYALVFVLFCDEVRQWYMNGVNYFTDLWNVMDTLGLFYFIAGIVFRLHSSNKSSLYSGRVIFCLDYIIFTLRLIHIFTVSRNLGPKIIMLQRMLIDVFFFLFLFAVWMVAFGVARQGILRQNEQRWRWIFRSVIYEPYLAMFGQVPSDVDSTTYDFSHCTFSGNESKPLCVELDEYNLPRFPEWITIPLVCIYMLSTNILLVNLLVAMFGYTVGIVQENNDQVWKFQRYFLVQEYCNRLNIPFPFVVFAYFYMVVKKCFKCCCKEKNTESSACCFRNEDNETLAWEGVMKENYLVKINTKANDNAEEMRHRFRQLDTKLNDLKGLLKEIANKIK
Procedure: as §1, §2, §3, §4

[2] = citral activation, nominal external calcium, read-out: Activation KD, app

## CC(C)=CCCC(C)=CC=O [citral, 3,7-dimethyl-2,6-octadienal]
[1]
  Activation of CRC V2–V4 chimera currents: restored citral activation
Mouse TRPV3 (mTRPV3)
  Hill coefficient (activation): 22.3
  Reversibility of citral inhibition of agonist-evoked current: essentially irreversible
Mouse TRPV3 (mTRPV3); +100 mV
  Increase of agonist-evoked current prior to onset of inhibition: 1.3±0.1 fold
Mouse TRPV3 (mTRPV3); −100 mV
  Increase of agonist-evoked current prior to onset of inhibition: 1.7±0.3 fold
Mouse TRPV3 (mTRPV3); [2]
  Kd: 926 µM
Mouse TRPV3 (mTRPV3); citral block of 2-aminoethyldiphenyl borate-evoked current
  Hill coefficient (inhibition): 4.0
Mouse TRPV3 (mTRPV3); citral block of current evoked by 700 µM 2-aminoethyldiphenyl borate, read-out: Inhibition KD, app
  Kd: 465 µM
Mouse TRPV3 (mTRPV3); fold larger, −40 mV, n = 6
  Agonist efficacy I2-APB (100 µM)/Icitral (1 mM): I2-APB (100 µM)/Icitral (1 mM) 25±14 fold larger (n = 6; −40 mV)
Mouse TRPV3 (mTRPV3); n = 6
  Time for >50% inhibition of peak TRP current in continued presence of citral: ≤ 6 s
Mouse TRPV3 (mTRPV3); −40 mV
  Increase of inward ITRPV3 above baseline: 38 fold
Rat TRPA1 (rTRPA1); allyl isothiocyanate-evoked
  Reversibility of citral inhibition of agonist-evoked current: rapidly reversed
Rat TRPA1 (rTRPA1); allyl isothiocyanate-induced, n = 10
  Effect of citral addition on agonist-induced current: not increased
Rat TRPA1 (rTRPA1); at 30s, n = 5
  TRPA1 current activation by allyl isothiocyanate recovered after citral washout: 60±16%
Rat TRPA1 (rTRPA1); citral activation, bell-shaped dose response, 2 mM external calcium
  Activation threshold: threshold ∼200 µM
Rat TRPA1 (rTRPA1); citral block of allyl isothiocyanate-evoked current
  Hill coefficient (inhibition): 1.0
Rat TRPA1 (rTRPA1); fold larger, −100 mV, n = 27 and 9
  Agonist efficacy IAITC (300 µM)/Icitral (300 µM): IAITC (300 µM)/Icitral (300 µM) 1.5 fold larger (n = 27 and 9; −100 mV)
Rat TRPA1 (rTRPA1); read-out: Inhibition KD, app
  Kd: 254 µM
Rat TRPA1 (rTRPA1); −100 mV
  Increase of ITRPA1 above baseline: 3.1±0.8 fold
Rat TRPM8 (rTRPM8)
  Hill coefficient (activation): 1.6
  Reversibility of citral inhibition of agonist-evoked current: essentially irreversible
Rat TRPM8 (rTRPM8); +40 mV
  Hill coefficient (inhibition): 1.7
Rat TRPM8 (rTRPM8); after 60 seconds washout, n = 3
  Increase in TRPM8 current evoked by menthol after citral washout: 4±2%
Rat TRPM8 (rTRPM8); [2]
  Kd: 33.5 µM
Rat TRPM8 (rTRPM8); citral block of menthol (1 mM)-evoked current, +40 mV, read-out: Inhibition KD, app
  Kd: 188 µM
Rat TRPM8 (rTRPM8); citral block of menthol (1 mM)-evoked current, −40 mV, read-out: Inhibition KD, app
  Kd: 241 µM
Rat TRPM8 (rTRPM8); fold larger, −40 mV, n = 5
  Agonist efficacy Imenthol (30 µM)/Icitral (300 µM): Imenthol (30 µM)/Icitral (300 µM) 74±28 fold larger (n = 5; −40 mV)
Rat TRPM8 (rTRPM8); menthol-induced, n = 4
  Effect of citral addition on agonist-induced current: not increased
Rat TRPM8 (rTRPM8); n = 7
  Time for >50% inhibition of peak TRP current in continued presence of citral: ≤ 14 s
Rat TRPM8 (rTRPM8); −40 mV
  Hill coefficient (inhibition): 2.0
  Increase of inward ITRPM8 above baseline: 2 fold
